The values that follow come from paper PMC2652407 (Journal of Medicinal Chemistry, 2009).

Assay [1] concerns the target T1, hAdoMetDC (Homo sapiens, UniProt P17707).
T1 sequence (P17707 1-67 limits assumed): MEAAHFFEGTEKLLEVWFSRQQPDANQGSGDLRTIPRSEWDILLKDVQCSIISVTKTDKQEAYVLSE
T1 sequence (P17707 68-328 limits assumed): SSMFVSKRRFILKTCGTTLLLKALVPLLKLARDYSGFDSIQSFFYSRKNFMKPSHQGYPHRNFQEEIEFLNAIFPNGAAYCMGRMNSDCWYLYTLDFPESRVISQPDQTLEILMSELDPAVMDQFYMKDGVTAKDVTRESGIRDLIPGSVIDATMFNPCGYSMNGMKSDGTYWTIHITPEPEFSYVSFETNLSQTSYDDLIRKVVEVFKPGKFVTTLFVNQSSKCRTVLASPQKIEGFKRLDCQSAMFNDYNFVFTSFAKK
To be noted: previously reported AdoMetDC inhibitor; cited from earlier work.

The target of assay [2] is T1, hAdoMetDC. It counts as biochemical. The note with it: versus corresponding 8-H parent compound.

On to `C[S+](C)C[C@H]1O[C@@H](n2cnc3c(N)ncnc32)[C@H](O)[C@@H]1O.[Cl-]` [Compound 25d, 5′-Deoxy-5′-dimethylsulfonioadenosine chloride], for which the Ki result in assay [1] is reported as “μM range”. As to `Cc1nc2c(N)ncnc2n1[C@@H]1O[C@H](CN(C)CCCCON)[C@@H](O)[C@H]1O.O=S(=O)(O)O` [Compound 14d, 5′-[(4-Aminooxybutyl)methylamino]-5′-deoxy-8-methyladenosine sulfate (1.9:1 salt)], in assay [2], the “reduction in the IC50 value / increase in potency when an 8-methyl substituent was added to the adenine ring” value came to 3.4 fold.
